Data set [1] in a line: tolerance in different animal species and administration ways. It is filed as in vivo.
Data set [2] in a line: acute toxicity, LD50, rat. As to conditions: in vivo.
Data set [3] is described as follows: acute toxicity, LD50, mouse. As to conditions: in vivo.

Several values for one entry are separate records, joined by “and”; a condition that tells them apart may be missing. Identical values can stand only once.

Usually LD50 stands for the dose expected to kill half of the subjects tested. A low value points to a more toxic substance.

On to `CC(C)(C)NCC(O)c1cc(Br)no1` (stereo not drawn) [Z 1170, 1-(3-bromo-isoxazol-5-yl)-2-ter.butylaminoethanol], for which the tolerance entry in data set [1] was “particularly favorable tolerance”. The LD50 is 196 mg/kg and 650 µmol/kg in data set [2] (iv, i.v. (1 ml/100 g/60")); > 2000 mg/kg in data set [2] (po, os); 230 mg/kg in data set [3] (ip); 126 mg/kg and 420 µmol/kg in data set [3] (iv, i.v. (1 ml/100 g/60")); 770 mg/kg in data set [3] (po, os).

Values taken from patent publication US4520200A, “Isoxazole derivatives” (Zambon S.p.A., priority 1978, dated 1985).
